Measured values: ChEMBL document CHEMBL1141818, “Annonaceous acetogenins: recent progress” (J Nat Prod, 1999)
Values after ≈ are worked out from the molar mass of the structure shown. Each block holds one compound with its values, some of them ahead of it.

Experiments:
Aedes aegypti = experiment: Insecticidal activity against yellow fever mosquito; assay type: functional
[1] = Cytotoxicity against human Hep2.2.15 cells; assay type: functional; conditions: HepG2 2.2.15, read-out: ED50 (the source's name)
[2] = Cytotoxicity against human Hep G2 cells; assay type: functional; conditions: HepG2, read-out: ED50 (the source's name)
[3] = Cytotoxicity against human CCM2 cells; assay type: functional; conditions: read-out: ED50 (the source's name)
PC-3 = experiment: Cytotoxicity against human PC-3 cells; assay type: functional; conditions: Homo sapiens, PC-3; read-out: ED50 (the source's name)
MIA PaCa-2 = experiment: Cytotoxicity against human MIA PaCa2 cells; assay type: functional; conditions: Homo sapiens, MIA PaCa-2; read-out: ED50 (the source's name)
A549 = experiment: Cytotoxicity against human A549 cells; assay type: functional; conditions: Homo sapiens, A549; read-out: ED50 (the source's name)
MCF7 [4] = experiment: Cytotoxicity against human MCF7 cells; assay type: functional; conditions: Homo sapiens, MCF7; read-out: ED50 (the source's name)
HT-29 = experiment: Cytotoxicity against human HT-29 cells; assay type: functional; conditions: Homo sapiens, HT-29; read-out: ED50 (the source's name)
RPMI-7951 = experiment: Cytotoxicity against human RPMI-7951 cells; assay type: functional; conditions: read-out: ED50 (the source's name)
U-251 = experiment: Cytotoxicity against human U251 cells; assay type: functional, cell-based
KB = experiment: Cytotoxicity against human KB cells; assay type: functional, cell-based; conditions: for IC50: Homo sapiens, KB
HCT-8 = experiment: Cytotoxicity against human HCT8 cells; assay type: functional, cell-based
HL-60 = experiment: Cytotoxicity against human HL-60 cells; assay type: functional, cell-based
A2780 = experiment: Cytotoxicity against human A2780 cells; assay type: functional, cell-based
[5] = Inhibition of NADH oxidase
X5563 = experiment: Cytotoxicity against human X5563 cells; assay type: functional
Blattella germanica [6] = experiment: Ratio of LT50 for Blattella germanica Muncie second instars to LT50 for Blattella germanica Jwax second instars; assay type: functional
Blattella germanica [7] = experiment: Ratio of LT50 for Blattella germanica Muncie fifth instars to LT50 for Blattella germanica Jwax fifth instars; assay type: functional
MCF7 [8] = experiment: Cytotoxicity against human wild type MCF7 cells at 1 ug/ml; assay type: functional

Compound: CCCCCCCCCC[C@@H](O)[C@H]1CC[C@@H]([C@H]2CC[C@H]([C@H](O)CCC[C@H](O)CCCCCCCC3=C[C@H](C)OC3=O)O2)O1 [TRILOBIN]
- LC50 (Aedes aegypti): 0.67 µg/mL (≈ 1.1 µM)

Compound: CCCCCCCCCCCC[C@@H](O)[C@H]1CC[C@H]([C@H](O)CC/C=C\CCCCCC[C@@H]2CC(CC(C)=O)C(=O)O2)O1 (mixture of isomers)
- EC50 [1]: 0.14 µg/mL
- EC50 [2]: 0.047 µg/mL
- EC50 [3]: 0.085 µg/mL

Compound: CCCCCCCCCC[C@H](O)[C@@H]1CC[C@@H]([C@@H]2CC[C@@H]([C@@H](O)CCC(O)CCCCCCCCC[C@@H](O)CC3=C[C@H](C)OC3=O)O2)O1 (some centres not stated) [ARTICULIN]
- EC50 (PC-3): 1.9 µg/mL (≈ 2.85 µM)
- EC50 (MIA PaCa-2): 1 µg/mL (≈ 1.5 µM)
- EC50 (A549): 0.006 µg/mL (≈ 0.009 µM)
- EC50 (MCF7 [4]): 0.004 µg/mL (≈ 0.006 µM)
- EC50 (HT-29): 0.6 µg/mL (≈ 0.9 µM)
- EC50 (RPMI-7951): 0.01 µg/mL (≈ 0.015 µM)
- EC50 (U-251; read-out: ED50 (the source's name)): 0.01 µg/mL (≈ 0.015 µM)

Compound: CCCCCCCCCCCC[C@@H](O)[C@H]1CC[C@H]([C@H](O)CC(O)CCCCCCCCCC(=O)CCC2=C[C@H](C)OC2=O)O1 (some centres not stated) [TONKININ B]
- IC50 (KB): > 10 µg/mL
- IC50 (HCT-8): 2.4 µg/mL (≈ 3.85 µM)
- IC50 (HL-60): 0.06 µg/mL (≈ 0.0963 µM)
- IC50 (A2780): > 10 µg/mL

Compound: CCCCCCCCCCCCCC[C@H](O)[C@H]1CC[C@H]([C@@H](CC(O)CCCCCCCCCCC2=C[C@H](C)OC2=O)OC(C)=O)O1 (some centres not stated) [TONKININ C]
- IC50 (KB): > 10 µg/mL
- IC50 (HCT-8): 0.86 µg/mL (≈ 1.32 µM)
- IC50 (HL-60): 0.00042 µg/mL (≈ 0.000645 µM)
- IC50 (A2780): > 10 µg/mL

Compound: CCCCCCCCCC[C@H](O)[C@@H]1CC[C@H]([C@H]2CC[C@@H]([C@H](O)CCCCCCCC[C@@H](O)CC3=C[C@H](C)OC3=O)O2)O1 [ROLLIMEMBRIN]
- IC50 [5]: 0.33 nM

Compound: CCCCCCCCCC[C@H](O)[C@H]1CC[C@H]([C@H](O)CC[C@H](O)[C@@H]2CC[C@@H](CCCCCCC[C@@H](O)CC3=C[C@H](C)OC3=O)O2)O1 [BULLATALICIN]
- Activity (X5563): 67%
- Ratio (Blattella germanica [6]): 0.9
- Ratio (Blattella germanica [7]): 1.8
- LC50 (Aedes aegypti): 0.1 µg/mL (≈ 0.157 µM)

Compound: CCCCCCCCCC[C@@H](O)[C@@H]1CC[C@@H]([C@@H]2CC[C@@H]([C@@H](O)CCCCC(=O)CCCCCCCC3=C[C@H](C)OC3=O)O2)O1 [GUANACONNE]
- IC50 (U-251): 1.5 nM

Compound: CCCCCCCCCCCC[C@H](O)[C@H]1CC[C@H]([C@H](O)CC(O)CCCCCCCCCC(=O)CCC2=C[C@H](C)OC2=O)O1 (some centres not stated) [TONKININ A]
- IC50 (KB): > 10 µg/mL
- IC50 (HCT-8): 0.59 µg/mL (≈ 0.947 µM)
- IC50 (HL-60): 0.016 µg/mL (≈ 0.0257 µM)
- IC50 (A2780): > 10 µg/mL

Compound: CCCCCCC(O)CCC[C@H](O)[C@@H]1CC[C@@H]([C@@H]2CC[C@H]([C@H](O)CCCCCCCCCCC3=C[C@H](C)OC3=O)O2)O1 (some centres not stated) [CAROLIN C]
- Activity (MCF7 [8]): 50%
- ED50 (KB): 2 ×10⁻⁴ ug/ml

- IC50 [5]: 0.3 nM
Compound: CCCCCCCCCC[C@@H](O)[C@@H]1CC[C@H]([C@H]2CC[C@@H]([C@@H](O)CCCCCCCCCCC3=C[C@H](C)OC3=O)O2)O1 [MEMBRAROLLIN]
